Experimental data taken from US11084800B2 (Achillion Pharmaceuticals, Inc., priority 2017, dated 2021).

Each compound was assayed against Human Factor D (Homo sapiens (Human), UniProt P00746) (assay: Human Factor D Assay). Conditions: Table 6; Factor D 80 nM, substrate Z-L-Lys-SBz; read-out: IC50.
Assay type: biochemical
Description: The assay of Example 10 was used to determine the IC50's of the compounds. Other standard factor D inhibition assays are also available.
Human Factor D (purified from human serum, Complement Technology, Inc.) at 80 nM final concentration is incubated with test compound at various concentrations for 5 min at room temperature in 50 mM Tris, 1M NaCl, pH 7.5. A synthetic substrate Z-L-Lys-SBz and DTNB (Ellman's reagent) are added to final concentrations of 100 μM each. Absorbance at 405 nm (A405) is recorded at 30 second intervals for 30 min using a microplate spectrophotometer. IC50 values are calculated by nonlinear regression of complement Factor D reaction rates as a function of test compound concentration.

Chain of Human Factor D (P00746 26-253): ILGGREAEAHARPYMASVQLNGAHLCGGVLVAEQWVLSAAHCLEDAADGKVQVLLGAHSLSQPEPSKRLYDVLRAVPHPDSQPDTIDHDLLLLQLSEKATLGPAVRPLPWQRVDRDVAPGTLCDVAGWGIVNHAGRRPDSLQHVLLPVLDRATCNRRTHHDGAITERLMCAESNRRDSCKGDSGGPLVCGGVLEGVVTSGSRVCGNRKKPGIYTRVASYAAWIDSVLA

Question: How did the IC50 turn out when CC(=O)c1nn(CC(=O)N2[C@H](C(=O)Nc3nc(Br)c(F)cc3C)C[C@@]3(C)C[C@@H]23)c2c(C)cc(-c3cnc(C)nc3)cc12 [Compound 27, (1R,3S,5R)-2-(2-(3-acetyl-7-methyl-5-(2-methylpyrimidin-5-yl)-1H-indazol-1-yl)acetyl)-N-(6-bromo-5-fluoro-3-methylpyridin-2-yl)-5-methyl-2-azabicyclo[3.1.0]hexane-3-carboxamide] was run?
Answer: The IC50 was < 1000 nM.

Question: With C=CCOCc1ccc(Br)nc1NC(=O)[C@@H]1C[C@]2(COCC=C)C[C@@H]2N1C(=O)Cn1nc(C(C)=O)c2cc(-c3cnc(C)nc3)ccc21 [Compound 29, (1S,3S,5R)-2-(2-(3-Acetyl-5-(2-methylpyrimidin-5-yl)-1H-indazol-1-yl)acetyl)-5-((allyloxy)methyl)-N-(3-((allyloxy)methyl)-6-bromopyridin-2-yl)-2-azabicyclo[3.1.0]hexane-3-carboxamide] as the compound, how does the IC50 read?
Answer: The IC50 was < 1000 nM.

Question: With CC(=O)c1nn(CC(=O)N2[C@H](C(=O)Nc3nc(Br)ccc3C)C[C@@]3(C)C[C@@H]23)c2c(CF)cc(-c3cnc(C)nc3)cc12 [Compound 31, (1R,3S,5R)-2-(2-(3-Acetyl-7-(fluoromethyl)-5-(2-methylpyrimidin-5-yl)-1H-indazol-1-yl)acetyl)-N-(6-bromo-3-methylpyridin-2-yl)-5-methyl-2-azabicyclo[3.1.0]hexane-3-carboxamide] as the compound, how does the IC50 read?
Answer: The IC50 was < 1000 nM.

Question: How did the IC50 turn out when COCc1cc(-c2cnc(C)nc2)cc2c(C(C)=O)nn(CC(=O)N3C4CC4(COC)C[C@H]3C(=O)Nc3cccc(Br)n3)c12 (stereo partly drawn) [Compound 32, (3S)-2-(2-(3-Acetyl-7-(methoxymethyl)-5-(2-methylpyrimidin-5-yl)-1H-indazol-1-yl)acetyl)-N-(6-bromopyridin-2-yl)-5-(methoxymethyl)-2-azabicyclo[3.1.0]hexane-3-carboxamide] was run?
Answer: Its IC50 is < 1000 nM.

Question: With CC(=O)c1nn(CC(=O)N2[C@H](C(=O)Nc3cccc(OC(F)(F)F)c3F)C[C@@]3(C)C[C@@H]23)c2c(C)cc(-c3cnc(C)nc3)cc12 [Compound 33, (1R,3S,5R)-2-(2-(3-Acetyl-7-methyl-5-(2-methylpyrimidin-5-yl)-1H-indazol-1-yl)acetyl)-N-(2-fluoro-3-(trifluoromethoxy)phenyl)-5-methyl-2-azabicyclo[3.1.0]hexane-3-carboxamide] as the compound, how does the IC50 read?
Answer: Its IC50 is < 1000 nM.

Question: Which IC50 does the source give for CC(=O)c1nn(CC(=O)N2[C@H](C(=O)N[C@@H](C)C(F)=C(C)C)C[C@@]3(C)C[C@@H]23)c2c(C)cc(-c3cnc(C)nc3)cc12 [Compound 34, (1R,3S,5R)-2-(2-(3-Acetyl-7-methyl-5-(2-methylpyrimidin-5-yl)-1H-indazol-1-yl)acetyl)-N—((S)-3-fluoro-4-methylpent-3-en-2-yl)-5-methyl-2-azabicyclo[3.1.0]hexane-3-carboxamide] here?
Answer: The IC50 was < 1000 nM.

Question: CC(=O)c1nn(CC(=O)N2[C@H](C(=O)Nc3ccn(CC(F)(F)F)n3)C[C@@]3(C)C[C@@H]23)c2c(C)cc(-c3cnc(C)nc3)cc12 [Compound 35, (1R,3S,5R)-2-(2-(3-Acetyl-7-methyl-5-(2-methylpyrimidin-5-yl)-1H-indazol-1-yl)acetyl)-5-methyl-N-(1-(2,2,2-trifluoroethyl)-1H-pyrazol-3-yl)-2-azabicyclo[3.1.0]hexane-3-carboxamide] was tested. Which IC50 did it give?
Answer: Its IC50 is < 1000 nM.

Question: CC(=O)c1nn(CC(=O)N2[C@H](C(=O)Nc3cccc(C(F)(F)F)n3)C[C@@]3(C)C[C@@H]23)c2c(C)cc(-c3cnc(C)nc3)cc12 [Compound 36, (1R,3S,5R)-2-(2-(3-Acetyl-7-methyl-5-(2-methylpyrimidin-5-yl)-1H-indazol-1-yl)acetyl)-5-methyl-N-(6-(trifluoromethyl)pyridin-2-yl)-2-azabicyclo[3.1.0]hexane-3-carboxamide] was tested. Which IC50 did it give?
Answer: Its IC50 is < 1000 nM.

Question: How did the IC50 turn out when CC(=O)c1nn(CC(=O)N2[C@H](C(=O)Nc3cccc(OC(F)(F)F)n3)C[C@@]3(C)C[C@@H]23)c2c(C)cc(-c3cnc(C)nc3)cc12 [Compound 37, (1R,3S,5R)-2-(2-(3-Acetyl-7-methyl-5-(2-methylpyrimidin-5-yl)-1H-indazol-1-yl)acetyl)-5-methyl-N-(6-(trifluoromethoxy)pyridin-2-yl)-2-azabicyclo[3.1.0]hexane-3-carboxamide] was run?
Answer: Its IC50 is < 1000 nM.
